Measured values: patent US20100298141A1, “SUBSTITUTED PYRIDINE N-OXIDE HERBICIDES” (E. I. DU PONT DE NEMOURS AND COMPANY, priority 2007, published 2010)

What was measured:
barnyardgrass = experiment: Test A pre-/postemergence greenhouse test; type: in vivo, Echinochloa crus-galli; conditions: for Plant response rating, Barnyardgrass: 0 to 100 scale where 0 is no effect and 100 is complete control; for Barnyardgrass plant response rating: 0 to 100 scale
In short: (§1)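 Herbicidal effect is a visual injury score given about ten days post-treatment by comparison with untreated controls. Preemergence plots received a directed spray onto sown loam–sand soil; postemergence plants, at the one- to two-leaf stage and 2–10 cm tall, were sprayed at the same time.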

giant foxtail = experiment: Test A pre-/postemergence greenhouse test; type: in vivo, Setaria faberi; conditions: for Plant response rating, Foxtail, Giant: 0 to 100 scale where 0 is no effect and 100 is complete control; for Foxtail, Giant plant response rating: 0 to 100 scale
In short: as §1

morningglory = experiment: Test A pre-/postemergence greenhouse test; type: in vivo, Ipomoea spp.; conditions: for Plant response rating, Morningglory: 0 to 100 scale where 0 is no effect and 100 is complete control; for Morningglory plant response rating: 0 to 100 scale
In short: as §1

redroot pigweed = experiment: Test A pre-/postemergence greenhouse test; type: in vivo, Amaranthus retroflexus; conditions: for Plant response rating, Pigweed: 0 to 100 scale where 0 is no effect and 100 is complete control; for Pigweed plant response rating: 0 to 100 scale
In short: as §1

wheat [1] = experiment: Test A pre-/postemergence greenhouse test; type: in vivo, Triticum aestivum; conditions: for Plant response rating, Wheat: 0 to 100 scale where 0 is no effect and 100 is complete control; for Wheat plant response rating: 0 to 100 scale
In short: as §1

corn = experiment: Test A pre-/postemergence greenhouse test; type: in vivo, Zea mays; conditions: for Plant response rating, Corn: 0 to 100 scale where 0 is no effect and 100 is complete control; for Corn plant response rating: 0 to 100 scale
In short: as §1

wheat [2] = experiment: Test C pre-/postemergence test; type: in vivo, Triticum aestivum
In short: (§2)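 Compounds in a non-phytotoxic solvent with surfactant applied preemergence to seeded pots and, at the same time, postemergence to plants 2–18 cm tall (1- to 4-leaf stage). Paddy tests: pots flooded to 3 cm, compound applied into the water, depth held throughout.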

bermudagrass = experiment: Test C pre-/postemergence test; type: in vivo, Cynodon dactylon
In short: as §2

Surinam grass = experiment: Test C pre-/postemergence test; type: in vivo, Brachiaria decumbens
In short: as §2

crabgrass = experiment: Test C pre-/postemergence test; type: in vivo, Digitaria sanguinalis
In short: as §2

Goosegrass = experiment: Test C pre-/postemergence test; type: in vivo, Eleusin indica
In short: as §2

lambsquarters = experiment: Test C pre-/postemergence test; type: in vivo, Chenopodium album; conditions: for Plant response rating, Lambsquarters: scale 0 to 100, 0 no effect, 100 complete control
In short: as §2

eastern black nightshade = experiment: Test C pre-/postemergence test; type: in vivo, Solanum ptycanthum; conditions: for Plant response rating, Nightshade: 31 g ai/ha, scale 0 to 100 (0 no effect, 100 complete control)
In short: as §2

pigweed = experiment: Test C pre-/postemergence test; type: in vivo, Amaranthus retroflexus
In short: as §2

[3] = test system: common (oilseed) sunflower; experiment: Test C pre-/postemergence test; type: in vivo, Helianthus annuus; conditions: for Plant response rating, Sunflower: 31 g ai/ha, scale 0 to 100 (0 no effect, 100 complete control)
In short: as §2

rice = experiment: Test C flooded paddy test; type: in vivo, Oryza sativa; conditions: Flood
In short: (§3)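 Ratings were visual and made relative to untreated controls after 13 to 15 greenhouse days.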

umbrella sedge = experiment: Test C flooded paddy test; type: in vivo, Cyperus difformis; conditions: Flood
In short: as §3

[4] = Postemergence, 500 g ai/ha, 0 is no effect, 100 is complete control
[5] = Preemergence, 125 g ai/ha, 0 no effect, 100 complete control
[6] = 62 g ai/ha, Preemergence, scale 0 to 100
[7] = 125 g ai/ha, preemergence, scale 0 (no effect) to 100 (complete control)
[8] = Postemergence, 125 g ai/ha, scale 0 to 100, 0 no effect, 100 complete control
[9] = Postemergence, 250 g ai/ha, scale 0 to 100, 0 no effect, 100 complete control
[10] = Preemergence, 31 g ai/ha, scale 0 to 100 (0 no effect, 100 complete control)
[11] = preemergence, 250 g ai/ha, scale 0 (no effect) to 100 (complete control)
[12] = 62 g ai/ha, Preemergence, scale 0 to 100 (0 no effect, 100 complete control)
[13] = 62 g ai/ha, scale 0 to 100 (0 no effect, 100 complete control)
[14] = 250 g ai/ha, scale 0 to 100, 0 no effect, 100 complete control, 13 to 15 days
[15] = Postemergence, 125 g ai/ha, 0 is no effect, 100 is complete control
[16] = 31 g ai/ha, scale 0 to 100 (0 no effect, 100 complete control)
[17] = 62 g ai/ha, scale 0 to 100, 0 no effect, 100 complete control, 13 to 15 days
[18] = 125 g ai/ha, scale 0 to 100, 0 no effect, 100 complete control, 13 to 15 days

Cn1nc(C(F)(F)C(F)(F)F)c(C[S+]([O-])c2cccc[n+]2[O-])c1OCC(F)(F)F (stereo not drawn) [Compound 79]
Plant response rating, Barnyardgrass (barnyardgrass; Postemergence, 125 g ai/ha): 80
Barnyardgrass plant response rating (barnyardgrass; [4]): 90
Barnyardgrass plant response rating (barnyardgrass; [5]): 100
Plant response rating, Barnyardgrass (barnyardgrass; Preemergence, 500 g ai/ha): 100
Plant response rating, Foxtail, Giant (giant foxtail; Postemergence, 125 g ai/ha): 80
Foxtail, Giant plant response rating (giant foxtail; [4]): 90
Foxtail, Giant plant response rating (giant foxtail; [5]): 90
Plant response rating, Foxtail, Giant (giant foxtail; Preemergence, 500 g ai/ha): 100
Plant response rating, Morningglory (morningglory; Postemergence, 125 g ai/ha): 50
Morningglory plant response rating (morningglory; [4]): 100
Morningglory plant response rating (morningglory; [5]): 60
Plant response rating, Morningglory (morningglory; Preemergence, 500 g ai/ha): 90
Plant response rating, Pigweed (redroot pigweed; Postemergence, 125 g ai/ha): 30
Pigweed plant response rating (redroot pigweed; [4]): 70
Pigweed plant response rating (redroot pigweed; [5]): 90
Plant response rating, Pigweed (redroot pigweed; Preemergence, 500 g ai/ha): 100
Plant response rating, Wheat (wheat [1]; Postemergence, 125 g ai/ha): 50
Wheat plant response rating (wheat [1]; [4]): 70
Wheat plant response rating (wheat [1]; [5]): 80
Plant response rating, Wheat (wheat [1]; Preemergence, 500 g ai/ha): 100
Plant response rating, Corn (corn; Postemergence, 125 g ai/ha): 20
Corn plant response rating (corn; [4]): 80
Corn plant response rating (corn; [5]): 0
Plant response rating, Corn (corn; Preemergence, 500 g ai/ha): 80
Wheat plant response rating (wheat [2]; [6]): 10
Wheat plant response rating (wheat [2]; [7]): 60
Plant response rating (0 to 100), Wheat (wheat [2]; Postemergence, 31 g ai/ha): 0
Plant response rating (0 to 100), Wheat (wheat [2]; Postemergence, 62 g ai/ha): 30
Plant response rating, Wheat (wheat [2]; [8]): 60
Plant response rating, Wheat (wheat [2]; [9]): 80
Plant response rating, Wheat (wheat [2]; [10]): 10
Wheat plant response rating (wheat [2]; [11]): 80
Bermudagrass plant response rating (bermudagrass; [12]): 100
Bermudagrass plant response rating (bermudagrass; [7]): 100
Plant response rating (0 to 100), Bermudagrass (bermudagrass; Postemergence, 31 g ai/ha): 0
Plant response rating (0 to 100), Bermudagrass (bermudagrass; Postemergence, 62 g ai/ha): 0
Plant response rating, Bermudagrass (bermudagrass; [8]): 45
Plant response rating, Bermudagrass (bermudagrass; [9]): 50
Plant response rating, Bermudagrass (bermudagrass; [10]): 95
Bermudagrass plant response rating (bermudagrass; [11]): 100
Surinam Grass plant response rating (Surinam grass; [6]): 85
Surinam Grass plant response rating (Surinam grass; [7]): 98
Plant response rating (0 to 100), Surinam Grass (Surinam grass; Postemergence, 31 g ai/ha): 0
Plant response rating (0 to 100), Surinam Grass (Surinam grass; Postemergence, 62 g ai/ha): 0
Plant response rating, Surinam Grass (Surinam grass; [8]): 30
Plant response rating, Surinam Grass (Surinam grass; [9]): 85
Plant response rating, Surinam Grass (Surinam grass; [10]): 60
Surinam Grass plant response rating (Surinam grass; [11]): 100
Crabgrass, Large plant response rating (crabgrass; [6]): 80
Crabgrass, Large plant response rating (crabgrass; [7]): 100
Plant response rating (0 to 100), Crabgrass, Large (crabgrass; Postemergence, 31 g ai/ha): 0
Plant response rating (0 to 100), Crabgrass, Large (crabgrass; Postemergence, 62 g ai/ha): 0
Plant response rating, Crabgrass, Large (crabgrass; [8]): 0
Plant response rating, Crabgrass, Large (crabgrass; [9]): 50
Plant response rating, Crabgrass, Large (crabgrass; [10]): 40
Crabgrass, Large plant response rating (crabgrass; [11]): 100
Goosegrass plant response rating (Goosegrass; [6]): 75
Goosegrass plant response rating (Goosegrass; [7]): 100
Plant response rating (0 to 100), Goosegrass (Goosegrass; Postemergence, 31 g ai/ha): 0
Plant response rating (0 to 100), Goosegrass (Goosegrass; Postemergence, 62 g ai/ha): 0
Plant response rating, Goosegrass (Goosegrass; [8]): 40
Plant response rating, Goosegrass (Goosegrass; [9]): 50
Plant response rating, Goosegrass (Goosegrass; [10]): 70
Goosegrass plant response rating (Goosegrass; [11]): 100
Lambsquarters plant response rating (lambsquarters; [6]): 90
Lambsquarters plant response rating (lambsquarters; [7]): 100
Plant response rating (0 to 100), Lambsquarters (lambsquarters; Postemergence, 62 g ai/ha): 0
Plant response rating, Lambsquarters (lambsquarters; Postemergence, 125 g ai/ha): 0
Plant response rating, Lambsquarters (lambsquarters; Postemergence, 250 g ai/ha): 70
Lambsquarters plant response rating (lambsquarters; [11]): 100
Nightshade plant response rating (eastern black nightshade; [6]): 50
Nightshade plant response rating (eastern black nightshade; [7]): 50
Plant response rating, Nightshade (eastern black nightshade; Preemergence): 40
Nightshade plant response rating (eastern black nightshade; [11]): 100
Pigweed plant response rating (pigweed; [7]): 70
Plant response rating (0 to 100), Pigweed (pigweed; Postemergence, 31 g ai/ha): 0
Plant response rating (0 to 100), Pigweed (pigweed; Postemergence, 62 g ai/ha): 0
Plant response rating, Pigweed (pigweed; [8]): 20
Plant response rating, Pigweed (pigweed; [9]): 60
Pigweed plant response rating (pigweed; [11]): 100
Sunflower plant response rating [3, 6]: 60
Sunflower plant response rating [3, 7]: 100
Plant response rating, Sunflower ([3]; Preemergence): 40
Sunflower plant response rating [3, 11]: 100
Plant response rating, Rice (rice; [13]): 70
Plant response rating, Rice (rice; [14]): 80
Plant response rating, Sedge, Umbrella (umbrella sedge; [13]): 90
Plant response rating, Sedge, Umbrella (umbrella sedge; [14]): 100

Cn1nc(C(F)(F)F)c(CS(=O)(=O)c2cc(C(C)(C)C)cc[n+]2[O-])c1OC(F)F [Compound 25]
Barnyardgrass plant response rating (barnyardgrass; [15]): 40
Barnyardgrass plant response rating (barnyardgrass; [4]): 50
Barnyardgrass plant response rating (barnyardgrass; [5]): 90
Plant response rating, Barnyardgrass (barnyardgrass; Preemergence, 500 g ai/ha): 100
Foxtail, Giant plant response rating (giant foxtail; [15]): 30
Foxtail, Giant plant response rating (giant foxtail; [4]): 70
Foxtail, Giant plant response rating (giant foxtail; [5]): 100
Plant response rating, Foxtail, Giant (giant foxtail; Preemergence, 500 g ai/ha): 100
Morningglory plant response rating (morningglory; [15]): 10
Morningglory plant response rating (morningglory; [4]): 60
Morningglory plant response rating (morningglory; [5]): 0
Plant response rating, Morningglory (morningglory; Preemergence, 500 g ai/ha): 80
Pigweed plant response rating (redroot pigweed; [15]): 30
Pigweed plant response rating (redroot pigweed; [4]): 40
Pigweed plant response rating (redroot pigweed; [5]): 100
Plant response rating, Pigweed (redroot pigweed; Preemergence, 500 g ai/ha): 100
Wheat plant response rating (wheat [1]; [15]): 0
Wheat plant response rating (wheat [1]; [4]): 40
Wheat plant response rating (wheat [1]; [5]): 40
Plant response rating, Wheat (wheat [1]; Preemergence, 500 g ai/ha): 60
Corn plant response rating (corn; [15]): 0
Corn plant response rating (corn; [4]): 20
Corn plant response rating (corn; [5]): 0
Plant response rating, Corn (corn; Preemergence, 500 g ai/ha): 60
Wheat plant response rating (wheat [2]; [6]): 20
Plant response rating, Wheat (wheat [2]; [10]): 0
Bermudagrass plant response rating (bermudagrass; [12]): 100
Plant response rating, Bermudagrass (bermudagrass; [10]): 75
Plant response rating (0 to 100), Bermudagrass (bermudagrass; Preemergence, 250 g ai/ha): 100
Bermudagrass plant response rating (bermudagrass; preemergence, 125 g ai/ha, scale 0 (no effect) to 100 (complete control)): 100
Surinam Grass plant response rating (Surinam grass; [6]): 50
Plant response rating, Surinam Grass (Surinam grass; [10]): 0
Crabgrass, Large plant response rating (crabgrass; [6]): 100
Plant response rating, Crabgrass, Large (crabgrass; [10]): 100
Plant response rating (0 to 100), Crabgrass, Large (crabgrass; Preemergence, 250 g ai/ha): 100
Goosegrass plant response rating (Goosegrass; [6]): 100
Plant response rating, Goosegrass (Goosegrass; [10]): 100
Plant response rating (0 to 100), Goosegrass (Goosegrass; Preemergence, 250 g ai/ha): 100
Lambsquarters plant response rating (lambsquarters; [6]): 60
Nightshade plant response rating (eastern black nightshade; [6]): 100
Plant response rating, Nightshade (eastern black nightshade; Preemergence): 100
Pigweed plant response rating (pigweed; [6]): 100
Plant response rating, Pigweed (pigweed; [10]): 100
Sunflower plant response rating [3, 6]: 0
Plant response rating, Sunflower ([3]; Preemergence): 0
Plant response rating, Rice (rice; [16]): 0
Plant response rating, Rice (rice; [17]): 0
Plant response rating, Rice (rice; [18]): 65
Plant response rating, Rice (rice; 250 g ai/ha, scale 0 to 100 (0 no effect, 100 complete control)): 75
Plant response rating, Sedge, Umbrella (umbrella sedge; [16]): 0
Plant response rating, Sedge, Umbrella (umbrella sedge; [17]): 80
Plant response rating, Sedge, Umbrella (umbrella sedge; [18]): 80
Plant response rating, Sedge, Umbrella (umbrella sedge; [14]): 85
